Measurements reported in patent US7288659B2, “Acylaminothiazole derivatives, their preparation and therapeutic use” (Sanofi-Aventis, priority 2001, dated 2007).

Compound | melting point
CCC[C@H](NC(=O)C(F)c1cc(F)cc(F)c1)C(=O)Nc1ncc(-c2ccccc2COC2CCCCC2)s1 (stereo partly drawn) [compound 67, (2S)-N-(5-{2-[(cyclohexyloxy)methyl]phenyl}-1,3-thiazol-2-yl)-2-{[2-(3,5-difluorophenyl)-2-fluoroacetyl]amino}pentanamide] | 91 °C
CC[C@H](NC(=O)Cc1cc(F)cc(F)c1)C(=O)Nc1nc(C)c(-c2ccccc2COC(C)C)s1 [compound 69, (2S)-2-{[2-(3,5-difluorophenyl)acetyl]amino}-N-{5-[2-(isopropoxymethyl)phenyl]-4-methyl-1,3-thiazol-2-yl}butanamide] | 79 °C
CCC[C@H](NC(=O)C(F)(F)c1cc(F)cc(F)c1)C(=O)Nc1ncc(-c2ccccc2COC2CCCCC2)s1 [compound 74, (2S)-N-(5-{2-[(cyclohexyloxy)methyl]phenyl}-1,3-thiazol-2-yl)-2-{[2-(3,5-difluorophenyl)-2,2-difluoroacetyl]amino}pentanamide] | 68 °C

More lines, now with the values ahead:

melting point | Compound
73 °C | CC[C@H](NC(=O)Cc1cc(F)cc(F)c1)C(=O)Nc1ncc(-c2ccccc2COC(C)C)s1 [compound 70, (2S)-2-{[2-(3,5-difluorophenyl)acetyl]amino}-N-{5-[2-(isopropoxymethyl)phenyl]-1,3-thiazol-2-yl}butanamide]
66.6 °C | CCC[C@H](NC(=O)Cc1cc(F)cc(F)c1)C(=O)Nc1nc(C)c(-c2ccccc2COC(C)C)s1 [compound 71, (2S)-2-{[2-(3,5-difluorophenyl)acetyl]amino}-N-{5-[2-(isopropoxymethyl)phenyl]-4-methyl-1,3-thiazol-2-yl}pentanamide]
74 °C | CCC[C@H](NC(=O)Cc1cc(F)cc(F)c1)C(=O)Nc1ncc(-c2ccccc2COC(C)C)s1 [compound 72, (2S)-2-{[2-(3,5-difluorophenyl)acetyl]amino}-N-{5-[2-(isopropoxymethyl)phenyl]-1,3-thiazol-2-yl}pentanamide]
149 °C | COC1CCC(OCc2ccccc2-c2cnc(NC(=O)[C@H](C)NC(=O)Cc3cc(F)cc(F)c3)s2)CC1 (stereo partly drawn) [compound 73, (2S)-2-{[2-(3,5-difluorophenyl)acetyl]amino}-N-[5-(2-{[(4-methoxycyclohexyl)oxy]methyl}phenyl]-1,3-thiazol-2-yl}propanamide]
